From BindingDB's records for doi:10.1021/jm020865i (Departement D'Ingenierie Et D'Etudes Des Proteines, 2002)
*1 amine or outer side, *2 acyl side, *3 side chain or, on linkers, in order; H or OH if unused. Where a SMILES comes first, the peptide text is derived from it. The star is where a group is joined. pNA = O=[N+]([O-])c1ccc(N*)cc1; Suc = O=C(CCC(=O)[*:2])[*:1]

How the values were obtained:
[1] = target: Peptidyl-prolyl cis-trans isomerase A, cyclophilin A (Homo sapiens) (UniProt P62937); assay: The compound was evaluated for its binding affinity against Human Cyclophilin hCyp-18 Peptidyl-prolyl isomerase
Sequence of Peptidyl-prolyl cis-trans isomerase A, cyclophilin A (Homo sapiens) (P62937 whole entry, looked up): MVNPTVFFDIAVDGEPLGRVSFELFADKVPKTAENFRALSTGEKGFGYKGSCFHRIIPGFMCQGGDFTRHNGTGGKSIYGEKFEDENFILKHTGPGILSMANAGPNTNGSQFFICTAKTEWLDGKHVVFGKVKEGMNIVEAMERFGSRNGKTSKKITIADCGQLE

[2] = target: Peptidyl-prolyl cis-trans isomerase A, cyclophilin A (Homo sapiens) (UniProt P62937); assay: Inhibitory activity against Human Cyclophilin hCyp-18 Peptidyl-prolyl isomerase by using the standard trypsin-coupled PPIase (peptidyl-prolyl isomerases) assay
[3] = target: Peptidyl-prolyl cis-trans isomerase A, cyclophilin A (Homo sapiens) (UniProt P62937); assay: The compound was evaluated for its binding affinity against Human Cyclophilin hCyp-18 Peptidyl-prolyl isomerase; remark: listed apart in the source

SMILES | Kd [1] [µM] | IC50 [2] [µM] | Kd [3] [µM]
C[C@H](NC(=O)CCC(=O)O)C(=O)NCC(=O)N1CCC[C@H]1C(=O)N[C@@H](Cc1ccccc1)C(=O)Nc1ccc([N+](=O)[O-])cc1 [N-[1-(2-{2-[1-(4-Nitro-phenylcarbamoyl)-2-phenyl-ethylcarbamoyl]-pyrrolidin-1-yl}-2-oxo-ethylcarbamoyl)-ethyl]-succinamic acid] (Suc-AGPF-pNA) | 140 | 1450 | –
C[C@H](NC(=O)CCC(=O)O)C(=O)N[C@@H](C)C(=O)N1CCC[C@H]1C(=O)N[C@@H](Cc1ccccc1)C(=O)Nc1ccc([N+](=O)[O-])cc1 [N-[1-(1-Methyl-2-{2-[1-(4-nitro-phenylcarbamoyl)-2-phenyl-ethylcarbamoyl]-pyrrolidin-1-yl}-2-oxo-ethylcarbamoyl)-ethyl]-succinamic acid] (Suc-AAPF-pNA) | – | 540 | 135
COC(=O)Cc1ccc(NC(=O)[C@H](Cc2ccccc2)NC(=O)C2CCCN2P(=O)(O)CNC(=O)[C@H](C)NC(C)=O)cc1 (some centres not stated) [[(2-Acetylamino-propionylamino)-methyl]-{2-[1-(4-methoxycarbonylmethyl-phenylcarbamoyl)-2-phenyl-ethylcarbamoyl]-pyrrolidin-1-yl}-phosphinic acid anion] | – | – | 79
CCOP(=O)(CNC(=O)[C@H](C)NC(=O)CCC(=O)O)N1CCCC1C(=O)N[C@@H](Cc1ccccc1)C(=O)Nc1ccc([N+](=O)[O-])cc1 (some centres not stated) [N-{1-[(Ethoxy-{2-[1-(4-nitro-phenylcarbamoyl)-2-phenyl-ethylcarbamoyl]-pyrrolidin-1-yl}-phosphinoylmethyl)-carbamoyl]-ethyl}-succinamic acid] | – | 15 | 20
CC(=O)N[C@@H](C)C(=O)N[C@@H](C)C(=O)N1CCC[C@H]1C(=O)N[C@@H](Cc1ccccc1)C(=O)Nc1ccc([N+](=O)[O-])cc1 [1-[2-(2-Acetylamino-propionylamino)-propionyl]-pyrrolidine-2-carboxylic acid [1-(4-nitro-phenylcarbamoyl)-2-phenyl-ethyl]-amide] (Ac-AAPF-pNA) | – | 640 | 145
CC(=O)N[C@@H](C)C(=O)NCC(=O)C(=O)N1CCCC1C(=O)N[C@@H](Cc1ccccc1)C(=O)Nc1ccc([N+](=O)[O-])cc1 (some centres not stated) [1-[3-(2-Acetylamino-propionylamino)-2-oxo-propionyl]-pyrrolidine-2-carboxylic acid [1-(4-nitro-phenylcarbamoyl)-2-phenyl-ethyl]-amide] | – | 215 | 127
CCOP(=O)(CNC(=O)[C@H](C)NC(C)=O)N1CCCC1C(=O)N[C@H](CNc1ccc([N+](=O)[O-])cc1)Cc1ccccc1 (some centres not stated) [[(2-Acetylamino-propionylamino)-methyl]-{2-[1-benzyl-2-(4-nitro-phenylamino)-ethylcarbamoyl]-pyrrolidin-1-yl}-phosphinic acid ethyl ester] | – | – | 200
